Laboratory results published in patent publication US11000033B2, “Ketone or oxime compound, and herbicide” (NISSAN CHEMICAL CORPORATION, priority 2014, dated 2021).

Tests used:
Format in all cases: in vivo
[1] = tested on: Alopecurus myosuroides; assay: Test Example 4: herbicidal effect by soil treatment (symbol J); conditions: application herbicide amount 320 g/ha
Method in brief: (§1)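 Seeds were sown in sterilized diluvial soil, covered with about 1.5 cm of soil, and the soil surface was sprayed with a water-diluted emulsion of the compound at a predetermined rate. Plants grew in a greenhouse at 25° C. to 30° C.; effects were scored visually 3 weeks after application.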

[2] = tested on: Alopecurus myosuroides; assay: Test Example 5: herbicidal effect by foliage application, plastic box (symbol J); conditions: 320 g/ha, 3 weeks after application
Method in brief: (§2)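 Herbicide, formulated as an emulsion and diluted in water, is sprayed onto the aerial parts of 14-day seedlings. These were grown at 25° C. to 30° C. in sterilized diluvial soil; effects are graded after 3 weeks.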

[3] = tested on: rice; assay: Test Example 4: effect on crop by soil treatment (symbol b); conditions: application herbicide amount 320 g/ha
Method in brief: (§3)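 Soil-treatment setup: crop and weed seeds were spot-sown into sterilized diluvial soil, then buried beneath approximately 1.5 cm of it, and the boxes were housed in a 25–30° C. greenhouse.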

[4] = tested on: Lolium multiflorum Lam.; assay: Test Example 4: herbicidal effect by soil treatment (symbol K); conditions: application herbicide amount 320 g/ha
Method in brief: as §1

[5] = tested on: corn; assay: Test Example 5: effect on crop by foliage application, plastic box (symbol c); conditions: 320 g/ha, 3 weeks after application
Method in brief: (§4)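 Box culture: sterile diluvial soil, seeds spot-sown, ~1.5 cm cover, raised under glass at 25–30° C.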

[6] = tested on: transplanted rice plant; assay: Test Example 1: effect on crop, application before weed generation in submerged conditions (symbol a); conditions: application herbicide amount 320 g/ha
Method in brief: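 Rice at 2.5 leaf stage transplanted into submerged soil (4 cm depth) sown with three weed species; herbicide applied before weed emergence.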

[7] = tested on: Scirpus juncoides; assay: Test Example 1: herbicidal activity, application before weed generation in submerged conditions (symbol B); conditions: application herbicide amount 320 g/ha
Method in brief: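 Application before weed emergence: an aqueous dilution of the emulsion formulation was poured onto the surface of 4 cm-deep floodwater on the day of sowing. Effect was judged after 3 weeks (greenhouse, 25–30 °C).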

[8] = tested on: rapeseed; assay: Test Example 5: effect on crop by foliage application, plastic box (symbol g); conditions: 320 g/ha, 3 weeks after application
Method in brief: as §4

[9] = tested on: Digitaria ciliaris; assay: Test Example 5: herbicidal effect by foliage application, plastic box (symbol F); conditions: 320 g/ha, 3 weeks after application
Method in brief: as §2

[10] = tested on: soybean; assay: Test Example 4: effect on crop by soil treatment (symbol d); conditions: application herbicide amount 320 g/ha
Method in brief: as §3

[11] = tested on: Galium spurium; assay: Test Example 5: herbicidal effect by foliage application, plastic box (symbol Q); conditions: 320 g/ha, 3 weeks after application
Method in brief: as §2

[12] = tested on: Echinochloa crus-galli var. crus-galli; assay: Test Example 5: herbicidal effect by foliage application, plastic box (symbol H); conditions: 320 g/ha, 3 weeks after application
Method in brief: as §2

[13] = tested on: wheat; assay: Test Example 4: effect on crop by soil treatment (symbol e); conditions: application herbicide amount 320 g/ha
Method in brief: as §3

[14] = tested on: Monochoria vaginalis; assay: Test Example 2: herbicidal activity, application during weed generation in submerged conditions (symbol C); conditions: Table 23; application herbicide amount 320 g/ha; grade 0-5 by criteria of Test Example 1
Method in brief: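 Steps: fill pots with alluvial soil; add water to 4 cm depth; co-sow the three weeds; grow at 25° C. to 30° C. under glass; at 1–2 leaves, dose the floodwater with diluted emulsion; rate damage visually after 3 weeks.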

CC#Cc1cc(C)c(C2=C(OC(=O)COc3ccccc3)CC(CC(=NOC)C(C)C)C2=O)c(C)c1 (centres unmarked) [9-003]
Herbicidal effect grade, J: Alopecurus myosuroides [1]: 5 (Herbicidal ratio of 90% or more (almost completely withered))
J: Alopecurus myosuroides, herbicidal effect grade [2]: 5 (Herbicidal ratio of 90% or more (almost completely withered))
Effect on crop grade, b: directly sowed rice plant [3]: 5 (Herbicidal ratio of 90% or more (almost completely withered))
Herbicidal effect grade, K: Lolium multiflorum Lam. [4]: 5 (Herbicidal ratio of 90% or more (almost completely withered))
c: corn, effect on crop grade [5]: 5 (Herbicidal ratio of 90% or more (almost completely withered))
Effect grade on crop, a: transplanted rice plant [6]: 5 (Herbicidal ratio of 90% or more (almost completely withered))
Herbicidal effect grade, B: Scirpus juncoides [7]: 4 (Herbicidal ratio of 70% or higher and lower than 90%)
g: rapeseed, effect on crop grade [8]: 4 (Herbicidal ratio of 70% or higher and lower than 90%)
F: Digitaria ciliaris, herbicidal effect grade [9]: 5 (Herbicidal ratio of 90% or more (almost completely withered))
Effect on crop grade, d: soybean [10]: 0 (Herbicidal ratio of 5% or lower (almost no effect))
Q: Galium spurium, herbicidal effect grade [11]: 0 (Herbicidal ratio of 5% or lower (almost no effect))
H: Echinochloa crus-galli var. crus-galli, herbicidal effect grade [12]: 5 (Herbicidal ratio of 90% or more (almost completely withered))
Effect on crop grade, e: wheat [13]: 4 (Herbicidal ratio of 70% or higher and lower than 90%)

CON=C(C)CC1CC(OC(=O)COc2ccccc2[N+](=O)[O-])=C(c2c(C)cc(C)cc2C)C1=O (centres unmarked) [1-071]
J (Alopecurus myosuroides) herbicidal effect grade [1]: 5 (Herbicidal ratio of 90% or more (almost completely withered))
J: Alopecurus myosuroides, herbicidal effect grade [2]: 5 (Herbicidal ratio of 90% or more (almost completely withered))
b (directly sowed rice plant) effect on crop grade [3]: 5 (Herbicidal ratio of 90% or more (almost completely withered))
K (Lolium multiflorum Lam.) herbicidal effect grade [4]: 5 (Herbicidal ratio of 90% or more (almost completely withered))
c: corn, effect on crop grade [5]: 5 (Herbicidal ratio of 90% or more (almost completely withered))
Effect grade on crop, a: transplanted rice plant [6]: 5 (Herbicidal ratio of 90% or more (almost completely withered))
Herbicidal effect grade, B: Scirpus juncoides [7]: 4 (Herbicidal ratio of 70% or higher and lower than 90%)
g: rapeseed, effect on crop grade [8]: 4 (Herbicidal ratio of 70% or higher and lower than 90%)
F: Digitaria ciliaris, herbicidal effect grade [9]: 5 (Herbicidal ratio of 90% or more (almost completely withered))
d (soybean) effect on crop grade [10]: 0 (Herbicidal ratio of 5% or lower (almost no effect))
Q: Galium spurium, herbicidal effect grade [11]: 2 (Herbicidal ratio of 20% or higher and lower than 40%)
H: Echinochloa crus-galli var. crus-galli, herbicidal effect grade [12]: 5 (Herbicidal ratio of 90% or more (almost completely withered))
e (wheat) effect on crop grade [13]: 4 (Herbicidal ratio of 70% or higher and lower than 90%)

CON=C(C)CC1CC(OC(=O)COc2ccc(Cl)cc2Cl)=C(c2c(C)cc(C)cc2C)C1=O (centres unmarked) [1-075]
J (Alopecurus myosuroides) herbicidal effect grade [1]: 5 (Herbicidal ratio of 90% or more (almost completely withered))
J: Alopecurus myosuroides, herbicidal effect (criteria 0-5) [2]: 5 (Herbicidal ratio of 90% or more (almost completely withered))
b (directly sowed rice plant) effect on crop grade [3]: 5 (Herbicidal ratio of 90% or more (almost completely withered))
K (Lolium multiflorum Lam.) herbicidal effect grade [4]: 5 (Herbicidal ratio of 90% or more (almost completely withered))
c: corn, effect on crop (criteria 0-5) [5]: 4 (Herbicidal ratio of 70% or higher and lower than 90%)
Effect grade on crop, a: transplanted rice plant [6]: 5 (Herbicidal ratio of 90% or more (almost completely withered))
Herbicidal effect grade, B: Scirpus juncoides [7]: 4 (Herbicidal ratio of 70% or higher and lower than 90%)
F: Digitaria ciliaris, herbicidal effect (criteria 0-5) [9]: 5 (Herbicidal ratio of 90% or more (almost completely withered))
d (soybean) effect on crop grade [10]: 0 (Herbicidal ratio of 5% or lower (almost no effect))
Q: Galium spurium, herbicidal effect (criteria 0-5) [11]: 0 (Herbicidal ratio of 5% or lower (almost no effect))
H: Echinochloa crus-galli var. crus-galli, herbicidal effect (criteria 0-5) [12]: 5 (Herbicidal ratio of 90% or more (almost completely withered))
e (wheat) effect on crop grade [13]: 4 (Herbicidal ratio of 70% or higher and lower than 90%)

CC(CC1CC(O)=C(c2c(C)cc(C)cc2C)C1=O)=NOC(C)(C)C (centres unmarked) [1-053]
J (Alopecurus myosuroides) herbicidal effect grade [1]: 3 (Herbicidal ratio of 40% or higher and lower than 70%)
Herbicidal effect grade, C: Monochoria vaginalis [14]: 0 (Herbicidal ratio of 5% or lower (almost no effect))
J: Alopecurus myosuroides, herbicidal effect grade [2]: 4 (Herbicidal ratio of 70% or higher and lower than 90%)
b (directly sowed rice plant) effect on crop grade [3]: 5 (Herbicidal ratio of 90% or more (almost completely withered))
K (Lolium multiflorum Lam.) herbicidal effect grade [4]: 5 (Herbicidal ratio of 90% or more (almost completely withered))
c: corn, effect on crop grade [5]: 3 (Herbicidal ratio of 40% or higher and lower than 70%)
Effect grade on crop, a: transplanted rice plant [6]: 5 (Herbicidal ratio of 90% or more (almost completely withered))
Herbicidal effect grade, B: Scirpus juncoides [7]: 3 (Herbicidal ratio of 40% or higher and lower than 70%)
g: rapeseed, effect on crop grade [8]: 4 (Herbicidal ratio of 70% or higher and lower than 90%)
F: Digitaria ciliaris, herbicidal effect grade [9]: 3 (Herbicidal ratio of 40% or higher and lower than 70%)
d (soybean) effect on crop grade [10]: 0 (Herbicidal ratio of 5% or lower (almost no effect))
H: Echinochloa crus-galli var. crus-galli, herbicidal effect grade [12]: 4 (Herbicidal ratio of 70% or higher and lower than 90%)
e (wheat) effect on crop grade [13]: 0 (Herbicidal ratio of 5% or lower (almost no effect))

CON=C(C)CC1CC(OC(=O)COc2ccc(OC)cc2)=C(c2c(C)cc(C)cc2C)C1=O (centres unmarked) [1-069]
J (Alopecurus myosuroides) herbicidal effect grade [1]: 5 (Herbicidal ratio of 90% or more (almost completely withered))
Herbicidal effect grade, C: Monochoria vaginalis [14]: 3 (Herbicidal ratio of 40% or higher and lower than 70%)
J: Alopecurus myosuroides, herbicidal effect grade [2]: 5 (Herbicidal ratio of 90% or more (almost completely withered))
b (directly sowed rice plant) effect on crop grade [3]: 5 (Herbicidal ratio of 90% or more (almost completely withered))
K (Lolium multiflorum Lam.) herbicidal effect grade [4]: 5 (Herbicidal ratio of 90% or more (almost completely withered))
c: corn, effect on crop grade [5]: 3 (Herbicidal ratio of 40% or higher and lower than 70%)
Effect grade on crop, a: transplanted rice plant [6]: 5 (Herbicidal ratio of 90% or more (almost completely withered))
Herbicidal effect grade, B: Scirpus juncoides [7]: 4 (Herbicidal ratio of 70% or higher and lower than 90%)
g: rapeseed, effect on crop grade [8]: 4 (Herbicidal ratio of 70% or higher and lower than 90%)
F: Digitaria ciliaris, herbicidal effect grade [9]: 5 (Herbicidal ratio of 90% or more (almost completely withered))
d (soybean) effect on crop grade [10]: 0 (Herbicidal ratio of 5% or lower (almost no effect))
H: Echinochloa crus-galli var. crus-galli, herbicidal effect grade [12]: 5 (Herbicidal ratio of 90% or more (almost completely withered))
e (wheat) effect on crop grade [13]: 4 (Herbicidal ratio of 70% or higher and lower than 90%)

CON=C(C)CC1CC(OC(=O)C(C)(C)Oc2cccc(Cl)c2)=C(c2c(C)cc(C)cc2C)C1=O (centres unmarked) [1-065]
J (Alopecurus myosuroides) herbicidal effect grade [1]: 5 (Herbicidal ratio of 90% or more (almost completely withered))
Herbicidal effect grade, C: Monochoria vaginalis [14]: 0 (Herbicidal ratio of 5% or lower (almost no effect))
J: Alopecurus myosuroides, herbicidal effect grade [2]: 5 (Herbicidal ratio of 90% or more (almost completely withered))
b (directly sowed rice plant) effect on crop grade [3]: 5 (Herbicidal ratio of 90% or more (almost completely withered))
K (Lolium multiflorum Lam.) herbicidal effect grade [4]: 5 (Herbicidal ratio of 90% or more (almost completely withered))
c: corn, effect on crop grade [5]: 5 (Herbicidal ratio of 90% or more (almost completely withered))
Effect grade on crop, a: transplanted rice plant [6]: 5 (Herbicidal ratio of 90% or more (almost completely withered))
Herbicidal effect grade, B: Scirpus juncoides [7]: 5 (Herbicidal ratio of 90% or more (almost completely withered))
g: rapeseed, effect on crop grade [8]: 4 (Herbicidal ratio of 70% or higher and lower than 90%)
F: Digitaria ciliaris, herbicidal effect grade [9]: 5 (Herbicidal ratio of 90% or more (almost completely withered))
d (soybean) effect on crop grade [10]: 0 (Herbicidal ratio of 5% or lower (almost no effect))
H: Echinochloa crus-galli var. crus-galli, herbicidal effect grade [12]: 5 (Herbicidal ratio of 90% or more (almost completely withered))
e (wheat) effect on crop grade [13]: 4 (Herbicidal ratio of 70% or higher and lower than 90%)
